Measurements reported in patent US20120324604A1, “PESTICIDAL MIXTURES CONTAINING ISOXAZOLINE DERIVATIVES AND A FUNGICIDE” (priority 2010, published 2012).

Columns and labels:
Format in all cases: cell-based
Pythium ultimum = Pythium ultimum (Damping Off) growth inhibition, microtiter plate, photometric
Experimental: Pythium ultimum (Damping Off):
Mycelial fragments of the fungus, prepared from a fresh liquid culture, were directly mixed into nutrient broth (potato dextrose broth). After placing a (DMSO) solution of the test compounds into a microtiter plate (96-well format) the nutrient broth containing the fungal spores was added.

Rhizoctonia solani = Rhizoctonia solani (Foot Rot, Damping-Off) growth inhibition, microtiter plate, photometric
Experimental: Rhizoctonia solani (Foot Rot, Damping-Off):
Mycelial fragments of the fungus from cryogenic storage were directly mixed into nutrient broth (potato dextrose broth). After placing a (DMSO) solution of the test compounds into a microtiter plate (96-well format) the nutrient broth containing the fungal spores was added.

Gaeumannomyces graminis = Gaeumannomyces graminis growth inhibition, microtiter plate, photometric
Experimental: Mycelial fragments of the fungus from cryogenic storage were directly mixed into nutrient broth (potato dextrose broth). After placing a (DMSO) solution of the test compounds into a microliter plate (96-well format) the nutrient broth containing the fungal spores was added.

[1] = system: Glomerella lagenarium (syn. Colletotrichum lagenarium); assay: Glomerella lagenarium (Anthracnose of Cucurbits) growth inhibition, microtiter plate, photometric; settings: alone
Experimental: Glomerella lagenarium (syn. Colletotrichum lagenarium), Anthracnose of Cucurbits:
(§1) Conidia of the fungus from cryogenic storage were directly mixed into nutrient broth (potato dextrose broth). After placing a (DMSO) solution of the test compounds into a microtiter plate (96-well format) the nutrient broth containing the fungal spores was added.

Septoria tritici = Septoria tritici (Leaf Blotch) growth inhibition, microtiter plate, photometric; settings: for AVERAGE DEAD IN % A1: A1 alone; for AVERAGE DEAD IN %: alone
Experimental: Septoria tritici (Leaf Blotch):
as §1

[2] = system: Mycosphaerella arachidis (syn. Cercospora arachidicola); assay: Mycosphaerella arachidis (Brown Leaf Spot of Groundnut) growth inhibition, microtiter plate, photometric; settings: alone
Experimental: Mycosphaerella arachidis (syn. Cercospora arachidicola), Brown Leaf Spot of Groundnut (Peanut):
as §1

Fusarium culmorum = Fusarium culmorum (Root Rot) growth inhibition, microtiter plate, photometric; settings: alone
Experimental: Fusarium culmorum (Root Rot):
as §1

[3] = single compound at 0.0390625 ppm AI
[4] = single compound at 0.078125 ppm AI
[5] = single compound at 0.15625 ppm AI
[6] = single compound at 0.3125 ppm AI
[7] = single compound at 0.625 ppm AI
[8] = applied alone, 0.0390625 ppm AI

Cc1cc(C2=NOC(c3cc(Cl)cc(Cl)c3)(C(F)(F)F)C2)ccc1C(=O)NC1(C)CSC1 (racemic) [A1]
0%: AVERAGE DEAD IN % (Pythium ultimum; [3]) | AVERAGE DEAD IN % (Pythium ultimum; [4]) | AVERAGE DEAD IN % (Pythium ultimum; [5]) | AVERAGE DEAD IN % (Pythium ultimum; [6]) | AVERAGE DEAD IN % (Pythium ultimum; [7]) | AVERAGE DEAD IN % (Pythium ultimum; single compound at 1.25 ppm AI) | AVERAGE DEAD IN % (Pythium ultimum; single compound at 2.5 ppm AI) | AVERAGE DEAD IN % (Pythium ultimum; single compound at 5 ppm AI) | AVERAGE DEAD IN % (Pythium ultimum; single compound at 10 ppm AI) | AVERAGE DEAD IN % (Pythium ultimum; single compound at 20 ppm AI) | AVERAGE DEAD IN % (Rhizoctonia solani; [8]) | AVERAGE DEAD IN % (Rhizoctonia solani; applied alone, 0.078125 ppm AI) | AVERAGE DEAD IN % (Rhizoctonia solani; applied alone, 0.15625 ppm AI) | AVERAGE DEAD IN % (Rhizoctonia solani; applied alone, 0.3125 ppm AI) | AVERAGE DEAD IN % (Rhizoctonia solani; applied alone, 0.625 ppm AI) | AVERAGE DEAD IN % (Rhizoctonia solani; applied alone, 1.25 ppm AI) | AVERAGE DEAD IN % (Rhizoctonia solani; applied alone, 2.5 ppm AI) | AVERAGE DEAD IN % (Rhizoctonia solani; applied alone, 5 ppm AI) | AVERAGE DEAD IN % (Rhizoctonia solani; applied alone, 10 ppm AI) | AVERAGE DEAD IN % (Rhizoctonia solani; applied alone, 20 ppm AI) | AVERAGE DEAD IN % (Rhizoctonia solani; [3]) | AVERAGE DEAD IN % (Rhizoctonia solani; [4]) | AVERAGE DEAD IN % (Rhizoctonia solani; [5]) | AVERAGE DEAD IN % (Rhizoctonia solani; [6]) | AVERAGE DEAD IN % (Rhizoctonia solani; [7]) | AVERAGE DEAD IN % (Rhizoctonia solani; single compound at 1.25 ppm AI) | AVERAGE DEAD IN % (Rhizoctonia solani; single compound at 2.5 ppm AI) | AVERAGE DEAD IN % (Rhizoctonia solani; single compound at 5 ppm AI) | AVERAGE DEAD IN % (Rhizoctonia solani; single compound at 10 ppm AI) | AVERAGE DEAD IN % (Rhizoctonia solani; single compound at 20 ppm AI) | AVERAGE DEAD IN % (Gaeumannomyces graminis; [8]) | AVERAGE DEAD IN % (Gaeumannomyces graminis; applied alone, 0.078125 ppm AI) | AVERAGE DEAD IN % (Gaeumannomyces graminis; applied alone, 0.15625 ppm AI) | AVERAGE DEAD IN % (Gaeumannomyces graminis; applied alone, 0.3125 ppm AI) | AVERAGE DEAD IN % (Gaeumannomyces graminis; applied alone, 0.625 ppm AI) | AVERAGE DEAD IN % (Gaeumannomyces graminis; applied alone, 1.25 ppm AI) | AVERAGE DEAD IN % (Gaeumannomyces graminis; applied alone, 2.5 ppm AI) | AVERAGE DEAD IN % (Gaeumannomyces graminis; applied alone, 5 ppm AI) | AVERAGE DEAD IN % (Gaeumannomyces graminis; applied alone, 10 ppm AI) | AVERAGE DEAD IN % (Gaeumannomyces graminis; applied alone, 20 ppm AI) | AVERAGE DEAD IN % (Gaeumannomyces graminis; [3]) | AVERAGE DEAD IN % (Gaeumannomyces graminis; [4]) | AVERAGE DEAD IN % (Gaeumannomyces graminis; [5]) | AVERAGE DEAD IN % (Gaeumannomyces graminis; [6]) | AVERAGE DEAD IN % (Gaeumannomyces graminis; [7]) | AVERAGE DEAD IN % (Gaeumannomyces graminis; single compound at 1.25 ppm AI) | AVERAGE DEAD IN % (Gaeumannomyces graminis; single compound at 2.5 ppm AI) | AVERAGE DEAD IN % (Gaeumannomyces graminis; single compound at 5 ppm AI) | AVERAGE DEAD IN % (Gaeumannomyces graminis; single compound at 10 ppm AI) | AVERAGE DEAD IN % (Gaeumannomyces graminis; single compound at 20 ppm AI) | AVERAGE DEAD IN % ([1]; 0.0390625 ppm AI) | AVERAGE DEAD IN % ([1]; 0.078125 ppm AI) | AVERAGE DEAD IN % ([1]; 0.15625 ppm AI) | AVERAGE DEAD IN % ([1]; 0.3125 ppm AI) | AVERAGE DEAD IN % ([1]; 0.625 ppm AI) | AVERAGE DEAD IN % ([1]; 1.25 ppm AI) | AVERAGE DEAD IN % ([1]; 2.5 ppm AI) | AVERAGE DEAD IN % ([1]; 5 ppm AI) | AVERAGE DEAD IN % ([1]; 10 ppm AI) | AVERAGE DEAD IN % ([1]; 20 ppm AI) | AVERAGE DEAD IN % A1 (Septoria tritici; 0.0390625 ppm AI) | AVERAGE DEAD IN % A1 (Septoria tritici; 0.078125 ppm AI) | AVERAGE DEAD IN % A1 (Septoria tritici; 0.15625 ppm AI) | AVERAGE DEAD IN % A1 (Septoria tritici; 0.3125 ppm AI) | AVERAGE DEAD IN % A1 (Septoria tritici; 0.625 ppm AI) | AVERAGE DEAD IN % A1 (Septoria tritici; 1.25 ppm AI) | AVERAGE DEAD IN % A1 (Septoria tritici; 2.5 ppm AI) | AVERAGE DEAD IN % A1 (Septoria tritici; 5 ppm AI) | AVERAGE DEAD IN % A1 (Septoria tritici; 10 ppm AI) | AVERAGE DEAD IN % A1 (Septoria tritici; 20 ppm AI) | AVERAGE DEAD IN % (Septoria tritici; 0.0390625 ppm AI) | AVERAGE DEAD IN % (Septoria tritici; 0.078125 ppm AI) | AVERAGE DEAD IN % (Septoria tritici; 0.15625 ppm AI) | AVERAGE DEAD IN % (Septoria tritici; 0.3125 ppm AI) | AVERAGE DEAD IN % (Septoria tritici; 0.625 ppm AI) | AVERAGE DEAD IN % (Septoria tritici; 1.25 ppm AI) | AVERAGE DEAD IN % (Septoria tritici; 2.5 ppm AI) | AVERAGE DEAD IN % (Septoria tritici; 5 ppm AI) | AVERAGE DEAD IN % (Septoria tritici; 10 ppm AI) | AVERAGE DEAD IN % (Septoria tritici; 20 ppm AI) | AVERAGE DEAD IN % ([2]; 0.0390625 ppm AI) | AVERAGE DEAD IN % ([2]; 0.078125 ppm AI) | AVERAGE DEAD IN % ([2]; 0.15625 ppm AI) | AVERAGE DEAD IN % ([2]; 0.3125 ppm AI) | AVERAGE DEAD IN % ([2]; 0.625 ppm AI) | AVERAGE DEAD IN % ([2]; 1.25 ppm AI) | AVERAGE DEAD IN % ([2]; 2.5 ppm AI) | AVERAGE DEAD IN % ([2]; 5 ppm AI) | AVERAGE DEAD IN % ([2]; 10 ppm AI) | AVERAGE DEAD IN % (Fusarium culmorum; 0.625 PPM AI) | AVERAGE DEAD IN % (Fusarium culmorum; 1.25 PPM AI) | AVERAGE DEAD IN % (Fusarium culmorum; 2.5 PPM AI) | AVERAGE DEAD IN % (Fusarium culmorum; 5 PPM AI) | AVERAGE DEAD IN % (Fusarium culmorum; 10 PPM AI) | AVERAGE DEAD IN % (Fusarium culmorum; 20 PPM AI)
